The values below come from patent US20250206732A1, “COMPOUNDS AND METHODS FOR THE TARGETED DEGRADATION OF KRAS” (Arvinas Operations, Inc., priority 2022, published 2025).

The experiment addresses T1, AsPC-1 HiBiT-KRASG12D (Homo sapiens, UniProt P01116, G12D).
T1 construct: insert the HiBiT tag onto the N-terminus of one or more of the endogenous KRAS alleles; endogenous in cells; host or cells: AsPC-1 (ATCC CRL-1682), CRISPR-Cas9 knock-in clone, one tagged allele
Kind of experiment: HiBiT degradation assay (G12D), AsPC-1 HiBiT-KRASG12D cells. It counts as cell-based. The note with it: 24 hours treatment; for Dmax: ASPC1, AsPC-1 HiBiT-KRASG12D cells; for DC50: HiBiT luminescence. In outline:
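Luminescence read-out of HiBiT-tagged endogenous KRASG12D in AsPC-1 cells after 24 h compound exposure at 37° C; lytic Nano-Glo HiBiT detection, 45 min at room temperature. A parallel alamar blue read (4 h) checked viability, normalized to DMSO-only controls.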
Background: HiBiT is a short tag that completes a luciferase, so light tracks the accessible tagged protein.

T1 sequence (P01116 1-188 isoform P01116-2 G12D): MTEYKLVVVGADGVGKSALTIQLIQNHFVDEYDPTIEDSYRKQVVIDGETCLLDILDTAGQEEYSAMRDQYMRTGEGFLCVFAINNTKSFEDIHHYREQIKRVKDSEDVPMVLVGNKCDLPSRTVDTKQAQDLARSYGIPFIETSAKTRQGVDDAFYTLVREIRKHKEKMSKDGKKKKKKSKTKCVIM

As for `CCc1cccc2cc(O)cc(-c3ncc4c(N5CC6CCC(C5)N6)nc(OCCN5CCN(CC6CN(c7cc([C@H](C(=O)N8C[C@H](O)C[C@H]8C(=O)N[C@@H](C)c8ccc(-c9scnc9C)cc8)C(C)C)on7)C6)CC5)nc4c3F)c12` [Compound 220, (2S,4R)-1-[(2R)-2-(3-{3-[(4-{2-[(4-{3,8-diazabicyclo[3.2.1]octan-3-yl}-7-(8-ethyl-3-hydroxynaphthalen-1-yl)-8-fluoropyrido[4,3-d]pyrimidin-2-yl)oxy]ethyl}piperazin-1-yl)methyl]azetidin-1-yl}-1,2-oxazol-5-yl)-3-methylbutanoyl]-4-hydroxy-N-[(1S)-1-[4-(4-methyl-1,3-thiazol-5-yl)phenyl]ethyl]pyrrolidine-2-carboxamide], for the setting “maximum degradation observed”, the Dmax – broadly, the greatest extent of degradation seen – was 80 to 100%. Moreover, the DC50 (commonly the concentration at which degradation of the target reaches its halfway point) (AsPC-1 HiBiT-KRASG12D cells) was under 600 nM.

In the case of `CCc1cccc2cc(O)cc(-c3ncc4c(N5CC6CCC(C5)N6)nc(OCCN5CCN(CC6CN(c7cc([C@@H](C(=O)N8C[C@H](O)C[C@H]8C(=O)N[C@@H](C)c8ccc(-c9scnc9C)cc8)C(C)C)on7)C6)CC5)nc4c3F)c12` [Compound 221, (2S,4R)-1-[(2S)-2-(3-{3-[(4-{2-[(4-{3,8-diazabicyclo[3.2.1]octan-3-yl}-7-(8-ethyl-3-hydroxynaphthalen-1-yl)-8-fluoropyrido[4,3-d]pyrimidin-2-yl)oxy]ethyl}piperazin-1-yl)methyl]azetidin-1-yl}-1,2-oxazol-5-yl)-3-methylbutanoyl]-4-hydroxy-N-[(1S)-1-[4-(4-methyl-1,3-thiazol-5-yl)phenyl]ethyl]pyrrolidine-2-carboxamide], the DC50 (AsPC-1 HiBiT-KRASG12D cells) was over 3000 nM.

Under “maximum degradation observed”, `CCc1cccc2cccc(-c3ncc4c(N5CC6CCC(C5)N6)nc(OC[C@@H]5CC[C@@H](COC(=O)N6CCN(c7cc([C@H](C(=O)N8C[C@H](O)C[C@H]8C(=O)N[C@@H](C)c8ccc(-c9scnc9C)cc8)C(C)C)on7)[C@H](C)C6)N5C)nc4c3F)c12` [Compound 222, [(2S,5S)-5-{[(4-{3,8-diazabicyclo[3.2.1]octan-3-yl}-7-(8-ethylnaphthalen-1-yl)-8-fluoropyrido[4,3-d]pyrimidin-2-yl)oxy]methyl}-1-methylpyrrolidin-2-yl]methyl (3R)-4-{5-[(2R)-1-[(2S,4R)-4-hydroxy-2-{[(1S)-1-[4-(4-methyl-1,3-thiazol-5-yl)phenyl]ethyl]carbamoyl}pyrrolidin-1-yl]-3-methyl-1-oxobutan-2-yl]-1,2-oxazol-3-yl}-3-methylpiperazine-1-carboxylate] returned a Dmax of 60 to 80%. Further, for the setting “AsPC-1 HiBiT-KRASG12D cells”, the half-maximal degradation concentration (DC50) is under 600 nM.

`CCc1cccc2cccc(-c3ncc4c(N5CC6CCC(C5)N6)nc(OC[C@@H]5CC[C@@H](COC(=O)N6CC(Oc7cc([C@H](C(=O)N8C[C@H](O)C[C@H]8C(=O)N[C@@H](C)c8ccc(-c9scnc9C)cc8)C(C)C)on7)C6)N5C)nc4c3F)c12` [Compound 223, [(2S,5S)-5-{[(4-{3,8-diazabicyclo[3.2.1]octan-3-yl}-7-(8-ethylnaphthalen-1-yl)-8-fluoropyrido[4,3-d]pyrimidin-2-yl)oxy]methyl}-1-methylpyrrolidin-2-yl]methyl 3-({5-[(2R)-1-[(2S,4R)-4-hydroxy-2-{[(1S)-1-[4-(4-methyl-1,3-thiazol-5-yl)phenyl]ethyl]carbamoyl}pyrrolidin-1-yl]-3-methyl-1-oxobutan-2-yl]-1,2-oxazol-3-yl}oxy)azetidine-1-carboxylate] returned a Dmax (maximum degradation observed) of 80 to 100%. Under “AsPC-1 HiBiT-KRASG12D cells”, this molecule displayed a half-maximal degradation concentration (DC50) of under 600 nM.

`CCc1cccc2cc(O)cc(-c3ncc4c(N5CC6CCC(C5)N6)nc(OCCN5CCC(F)(CN6CCN(c7cc([C@@H](C(=O)N8C[C@H](O)C[C@H]8C(=O)N[C@@H](C)c8ccc(-c9scnc9C)cc8)C(C)C)on7)[C@H](C)C6)CC5)nc4c3F)c12` [Compound 224, (2S,4R)-1-[(2S)-2-{3-[(2R)-4-[(1-{2-[(4-{3,8-diazabicyclo[3.2.1]octan-3-yl}-7-(8-ethyl-3-hydroxynaphthalen-1-yl)-8-fluoropyrido[4,3-d]pyrimidin-2-yl)oxy]ethyl}-4-fluoropiperidin-4-yl)methyl]-2-methylpiperazin-1-yl]-1,2-oxazol-5-yl}-3-methylbutanoyl]-4-hydroxy-N-[(1S)-1-[4-(4-methyl-1,3-thiazol-5-yl)phenyl]ethyl]pyrrolidine-2-carboxamide] came in with a Dmax (maximum degradation observed) of 20 to 60%. Further, under “AsPC-1 HiBiT-KRASG12D cells”, the DC50 was 600 to 1000 nM.

In the case of `CCc1cccc2cccc(-c3ncc4c(N5CC6CCC(C5)N6)nc(OC[C@]56CCCN5[C@H](COC(=O)N5CC(Oc7cc([C@H](C(=O)N8C[C@H](O)C[C@H]8C(=O)N[C@@H](C)c8ccc(-c9scnc9C)cc8)C(C)C)on7)C5)CC6)nc4c3F)c12` [Compound 225], the Dmax (maximum degradation observed) fell in the range of 80 to 100%. This molecule returned a DC50 (AsPC-1 HiBiT-KRASG12D cells) of under 600 nM.

Where the note is “AsPC-1 HiBiT-KRASG12D cells”, `CCc1cccc2cccc(-c3ncc4c(N5CC6CCC(C5)N6C(=O)OC(C)(C)C)nc(OC[C@]56CCCN5[C@H](COC(=O)N5CCN(c7cc([C@H](C(=O)N8C[C@H](O)C[C@H]8C(=O)N[C@@H](C)c8ccc(-c9scnc9C)cc8)C(C)C)on7)[C@H](C)C5)CC6)nc4c3F)c12` [Compound 226, tert-butyl 3-[7-(8-ethyl-1-naphthyl)-8-fluoro-2-[[(3S,8R)-3-[[(3R)-4-[5-[(1R)-1-[(2S,4R)-4-hydroxy-2-[[(1S)-1-[4-(4-methylthiazol-5-yl)phenyl]ethyl]carbamoyl]pyrrolidine-1-carbonyl]-2-methyl-propyl]isoxazol-3-yl]-3-methyl-piperazine-1-carbonyl]oxymethyl]-1,2,3,5,6,7-hexahydropyrrolizin-8-yl]methoxy]pyrido[4,3-d]pyrimidin-4-yl]-3,8-diazabicyclo[3.2.1]octane-8-carboxylate] came in with a DC50 of under 600 nM. Moreover, the “AsPC-1 HiBiT-KRASG12D DMax” value (AsPC-1 HiBiT-KRASG12D cells, maximum degradation observed) is given as “A (80% < A ≤ 100%)”.

Turning to `CCc1cccc2cc(O)cc(-c3ncc4c(N5CCCCCC5)nc(OC[C@]56CCCN5[C@H](COC(=O)N5CCN(c7cc([C@H](C(=O)N8C[C@H](O)C[C@H]8C(=O)N[C@@H](C)c8ccc(-c9scnc9C)cc8)C(C)C)on7)[C@H](C)C5)CC6)nc4c3F)c12` [Compound 227, [(3S,8R)-8-[[4-(azepan-1-yl)-7-(8-ethyl-3-hydroxy-1-naphthyl)-8-fluoro-pyrido[4,3-d]pyrimidin-2-yl]oxymethyl]-1,2,3,5,6,7-hexahydropyrrolizin-3-yl]methyl (3R)-4-[5-[(1R)-1-[(2S,4R)-4-hydroxy-2-[[(1S)-1-[4-(4-methylthiazol-5-yl)phenyl]ethyl]carbamoyl]pyrrolidine-1-carbonyl]-2-methyl-propyl]isoxazol-3-yl]-3-methyl-piperazine-1-carboxylate], the Dmax (maximum degradation observed) was in the range of 80 to 100%. Moreover, the DC50 (AsPC-1 HiBiT-KRASG12D cells) is under 600 nM.

Under “maximum degradation observed”, `CCc1cccc2cc(O)cc(-c3ncc4c(N5CC6CCC(C5)N6)nc(OCCN5CCC[C@@H](CN6CCN(c7cc([C@H](C(=O)N8C[C@H](O)C[C@H]8C(=O)N[C@@H](C)c8ccc(-c9scnc9C)cc8)C(C)C)on7)CC6)C5)nc4c3F)c12` [Compound 228] returned a Dmax of 80 to 100%. The same molecule gave a DC50 (AsPC-1 HiBiT-KRASG12D cells) of under 600 nM.

As to `CCc1cccc2cc(O)cc(-c3ncc4c(N5CCCCCC5)nc(OC[C@@]56CCCN5[C@H](COC(=O)N5CCN(c7cc([C@H](C(=O)N8C[C@H](O)C[C@H]8C(=O)N[C@@H](C)c8ccc(-c9scnc9C)cc8)C(C)C)on7)[C@H](C)C5)CC6)nc4c3F)c12` [Compound 229, [(3S,8S)-8-[[4-(azepan-1-yl)-7-(8-ethyl-3-hydroxy-1-naphthyl)-8-fluoro-pyrido[4,3-d]pyrimidin-2-yl]oxymethyl]-1,2,3,5,6,7-hexahydropyrrolizin-3-yl]methyl (3R)-4-[5-[(1R)-1-[(2S,4R)-4-hydroxy-2-[[(1S)-1-[4-(4-methylthiazol-5-yl)phenyl]ethyl]carbamoyl]pyrrolidine-1-carbonyl]-2-methyl-propyl]isoxazol-3-yl]-3-methyl-piperazine-1-carboxylate], the maximal degradation (Dmax) (maximum degradation observed) is 80 to 100%. The molecule further gave a half-maximal degradation concentration (DC50) (AsPC-1 HiBiT-KRASG12D cells) of under 600 nM.

Consider `CCc1cccc2cc(O)cc(-c3ncc4c(N5CCCCCC5)nc(OC[C@@H]5CC[C@@H](COC(=O)N6CCN(c7cc([C@H](C(=O)N8C[C@H](O)C[C@H]8C(=O)N[C@@H](C)c8ccc(-c9scnc9C)cc8)C(C)C)on7)[C@H](C)C6)N5C)nc4c3F)c12` [Compound 230, [(2S,5S)-5-[[4-(azepan-1-yl)-7-(8-ethyl-3-hydroxy-1-naphthyl)-8-fluoro-pyrido[4,3-d]pyrimidin-2-yl]oxymethyl]-1-methyl-pyrrolidin-2-yl]methyl (3R)-4-[5-[(1R)-1-[(2S,4R)-4-hydroxy-2-[[(1S)-1-[4-(4-methylthiazol-5-yl)phenyl]ethyl]carbamoyl]pyrrolidine-1-carbonyl]-2-methyl-propyl]isoxazol-3-yl]-3-methyl-piperazine-1-carboxylate], for which, where the note is “maximum degradation observed”, the Dmax lay in the range of 60 to 80%. The molecule also gave a DC50 (AsPC-1 HiBiT-KRASG12D cells) of under 600 nM.

Under “maximum degradation observed”, `CCc1cccc2cc(O)cc(-c3ncc4c(N5CC6CCC(C5)N6)nc(OCCN5CCC6(CC5)CC(Oc5cc([C@H](C(=O)N7C[C@H](O)C[C@H]7C(=O)N[C@@H](C)c7ccc(-c8scnc8C)cc7)C(C)C)on5)C6)nc4c3F)c12` [Compound 231] came in with a Dmax of 80 to 100%. Further, the DC50 (AsPC-1 HiBiT-KRASG12D cells) is under 600 nM.

`CCc1cccc2cc(O)cc(-c3ncc4c(N5CC6CCC(C5)N6)nc(OCCN5CCC6(CC5)CC(Oc5cc([C@@H](C(=O)N7C[C@H](O)C[C@H]7C(=O)N[C@@H](C)c7ccc(-c8scnc8C)cc7)C(C)C)on5)C6)nc4c3F)c12` [Compound 232]: where the note is “maximum degradation observed”, the Dmax was in the range of 20 to 60%. Further, the half-maximal degradation concentration (DC50) (AsPC-1 HiBiT-KRASG12D cells) lay within 1000 to 3000 nM.

For the molecule `CCc1cccc2cc(O)cc(-c3ncc4c(N5CC6CCC(C5)N6)nc(OCCN5CC(CC6CCN(c7cc([C@H](C(=O)N8C[C@H](O)C[C@H]8C(=O)N[C@@H](C)c8ccc(-c9scnc9C)cc8)C(C)C)on7)CC6)C5)nc4c3F)c12` [Compound 233], the Dmax (maximum degradation observed) lay within 80 to 100%. The same molecule displayed a DC50 (AsPC-1 HiBiT-KRASG12D cells) of under 600 nM.
